Reference: patent publication US20230148600A1, “PESTICIDALLY ACTIVE THIOPHENE DERIVATIVES” (SYNGENTA PARTICIPATIONS AG, priority 2017, published 2023)

Experiments:
Format in all cases: in vivo
[1] = tested on: Euschistus Heros (Neotropical BROWN Stink Bug); experiment: Euschistus heros (neotropical brown stink bug) feeding/contact activity; details: 120 h, application rate 200 ppm, soybean leaves sprayed, N2 nymphs, assessed 5 days after infestation
Method: Euschistus Heros (Neotropical BROWN Stink Bug) Feeding/Contact Activity
(§1) Soybean leaves on agar in 24-well microtiter plates were sprayed with aqueous test solutions prepared from 10 ′000 ppm DMSO stock solutions. After drying the leaves were infested with N2 nymphs. The samples were assessed for mortality 5 days after infestation.

[2] = tested on: Diabrotica Balteata (Corn Root Worm); experiment: Diabrotica balteata (corn root worm) mortality on sprayed maize sprouts; details: 96 h, application rate 200 ppm, L2 larvae, assessed 4 days after infestation
Method: Diabrotica Balteata (Corn Root Worm)
Maize sprouts placed onto an agar layer in 24-well microtiter plates were treated with aqueous test solutions prepared from 10 ′000 ppm DMSO stock solutions by spraying. After drying, the plates were infested with L2 larvae (6 to 10 per well). The samples were assessed for mortality 4 days after infestation.

[3] = tested on: Tetranychus Urticae (Two-Spotted Spider Mite); experiment: Tetranychus urticae (two-spotted spider mite) feeding/contact activity; details: foliar, 192 h, application rate 200 ppm, bean leaf discs sprayed, mite population of mixed ages, assessed 8 days after infestation, read-out: mortality on mixed population (mobile stages)
Method: Tetranychus Urticae (Two-Spotted Spider Mite) Feeding/Contact Activity
as §1, with “Bean leaf discs” for “Soybean leaves”, “leaf discs” for “leaves”, “a mite population of mixed ages.” for “N2 nymphs.”, “on mixed population (mobile stages) 8” for “5”

[4] = tested on: Spodoptera Littoralis (Egyptian Cotton Leaf Worm); experiment: Spodoptera littoralis (Egyptian cotton leaf worm) feeding/contact activity; details: foliar, 72 h, application rate 200 ppm, cotton leaf discs sprayed, L1 larvae, assessed 3 days after infestation
Method: Spodoptera Littoralis (Egyptian Cotton Leaf Worm) Feeding/Contact Activity
(§2) Cotton leaf discs were placed onto agar in 24-well microtiter plates and sprayed with aqueous test solutions prepared from 10 ′000 ppm DMSO stock solutions. After drying the leaf discs were infested with five L1 larvae. The samples were assessed for mortality 3 days after infestation.

[5] = tested on: Thrips Tabaci (Onion Thrips); experiment: Thrips tabaci (onion thrips) feeding/contact activity; details: foliar, 144 h, application rate 200 ppm, sunflower leaf discs sprayed, thrips population of mixed ages, assessed 6 days after infestation
Method: Thrips Tabaci (Onion Thrips) Feeding/Contact Activity
as §2, with “Sunflower” for “Cotton”, “on” for “onto”, “a thrips population of mixed ages.” for “five L1 larvae.”, “6” for “3”

[6] = tested on: Plutella Xylostella (Diamond Back Moth); experiment: Plutella xylostella (diamond back moth) feeding/contact activity; details: 120 h, application rate 200 ppm, artificial diet treated by pipetting, L2 larvae, assessed 5 days after infestation
Method: Plutella Xylostella (Diamond Back Moth) Feeding/Contact Activity
24-well microtiter plates with artificial diet were treated with aqueous test solutions prepared from 10 ′000 ppm DMSO stock solutions by pipetting. After drying, the plates were infested with L2 larvae (10 to 15 per well). The samples were assessed for mortality 5 days after infestation.

[7] = tested on: Myzus Persicae (Green Peach Aphid); experiment: Myzus persicae (green peach aphid) feeding/contact activity; details: foliar, 144 h, application rate 200 ppm, sunflower leaf discs sprayed, aphid population of mixed ages, assessed 6 days after infestation
Method: Myzus Persicae (Green Peach Aphid) Feeding/Contact Activity
Sunflower leaf discs were placed onto agar in a 24-well microtiter plate and sprayed with aqueous test solutions prepared from 10 ′000 ppm DMSO stock solutions. After drying, the leaf discs were infested with an aphid population of mixed ages. The samples were assessed for mortality 6 days after infestation.

Measured: mortality at 200 ppm

N#Cc1sc(-c2cnn(-c3c(Cl)cc(C(F)(C(F)(F)F)C(F)(F)F)cc3Cl)c2)cc1C(=O)NC1CC1 [Example 1, 2-cyano-N-cyclopropyl-5-[1-[2,6-dichloro-4-[1,2,2,2-tetrafluoro-1-(trifluoromethyl)ethyl]phenyl]pyrazol-4-yl]thiophene-3-carboxamide]
≥ 80%: all assays above

O=C(NC1CC1)c1cc(-c2cnn(-c3c(Cl)cc(C(F)(C(F)(F)F)C(F)(F)F)cc3Cl)c2)sc1Cl [Example 2, 2-chloro-N-cyclopropyl-5-[1-[2,6-dichloro-4-[1,2,2,2-tetrafluoro-1-(trifluoromethyl)ethyl]phenyl]pyrazol-4-yl]thiophene-3-carboxamide]
≥ 80%: all assays above

N#Cc1sc(-c2cnn(-c3c(Cl)cc(C(F)(C(F)(F)F)C(F)(F)F)cc3Cl)c2)cc1C(=O)NC1(C#N)CC1 [Example 3, 2-cyano-N-(1-cyanocyclopropyl)-5-[1-[2,6-dichloro-4-[1,2,2,2-tetrafluoro-1-(trifluoromethyl)ethyl]phenyl]pyrazol-4-yl]thiophene-3-carboxamide]
not listed: [7]
≥ 80%: all other assays above

N#CC1(NC(=O)c2cc(-c3cnn(-c4c(Cl)cc(C(F)(C(F)(F)F)C(F)(F)F)cc4Cl)c3)sc2Cl)CC1 [Example 4, 2-chloro-N-(1-cyanocyclopropyl)-5-[1-[2,6-dichloro-4-[1,2,2,2-tetrafluoro-1-(trifluoromethyl)ethyl]phenyl]pyrazol-4-yl]thiophene-3-carboxamide]
≥ 80%: all assays above

Cc1cc(C(F)(C(F)(F)F)C(F)(F)F)cc(C)c1-n1cc(-c2cc(C(=O)NC3CC3)c(C#N)s2)cn1 [Example 5, 2-cyano-N-cyclopropyl-5-[1-[2,6-dimethyl-4-[1,2,2,2-tetrafluoro-1-(trifluoromethyl)ethyl]phenyl]pyrazol-4-yl]thiophene-3-carboxamide]
not listed: [2] | [5]
≥ 80%: all other assays above

N#CC1(NC(=O)c2cc(-c3cnn(-c4ccc(C(F)(C(F)(F)F)C(F)(F)F)cc4Cl)c3)sc2Cl)CC1 [Example 6, 2-chloro-5-[1-[2-chloro-4-[1,2,2,2-tetrafluoro-1-(trifluoromethyl)ethyl]phenyl]pyrazol-4-yl]-N-(1-cyanocyclopropyl)thiophene-3-carboxamide]
≥ 80%: [1] | [3] | [4] | [6]

N#CC1(NC(=O)c2cc(-c3cnn(-c4c(Cl)cc(C(F)(C(F)(F)F)C(F)(F)F)cc4Br)c3)sc2Cl)CC1 [Example 7, 5-[1-[2-bromo-6-chloro-4-[1,2,2,2-tetrafluoro-1-(trifluoromethyl)ethyl]phenyl]pyrazol-4-yl]-2-chloro-N-(1-cyanocyclopropyl)thiophene-3-carboxamide]
≥ 80%: [1] | [3] | [4] | [6]

N#Cc1sc(-c2cnn(-c3ccc(C(F)(C(F)(F)F)C(F)(F)F)cc3Cl)c2)cc1C(=O)NC1CC1 [Example 8, 5-[1-[2-chloro-4-[1,2,2,2-tetrafluoro-1-(trifluoromethyl)ethyl]phenyl]pyrazol-4-yl]-2-cyano-N-cyclopropyl-thiophene-3-carboxamide]
not listed: [2] | [5]
≥ 80%: all other assays above

Cc1cc(C(F)(C(F)(F)F)C(F)(F)F)cc(C)c1-n1cc(-c2cc(C(=O)NC3(C#N)CC3)c(Cl)s2)cn1 [Example 10, 2-chloro-N-(1-cyanocyclopropyl)-5-[1-[2,6-dimethyl-4-[1,2,2,2-tetrafluoro-1-(trifluoromethyl)ethyl]phenyl]pyrazol-4-yl]thiophene-3-carboxamide]
not listed: [7]
≥ 80%: all other assays above

CCN(C(=O)c1cc(-c2cn(-c3c(Cl)cc(C(F)(C(F)(F)F)C(F)(F)F)cc3Cl)nn2)sc1C#N)C1CC1 [Example 11, 2-cyano-N-cyclopropyl-5-[1-[2,6-dichloro-4-[1,2,2,2-tetrafluoro-1-(trifluoromethyl)ethyl]phenyl]triazol-4-yl]-N-ethyl-thiophene-3-carboxamide]
not listed: [1] | [7]
≥ 80%: all other assays above

CN(C(=O)c1cc(-c2cn(-c3c(Cl)cc(C(F)(C(F)(F)F)C(F)(F)F)cc3Cl)nn2)sc1C#N)C1CC1 [Example 12, 2-cyano-N-cyclopropyl-5-[1-[2,6-dichloro-4-[1,2,2,2-tetrafluoro-1-(trifluoromethyl)ethyl]phenyl]triazol-4-yl]-N-methyl-thiophene-3-carboxamide]
not listed: [7]
≥ 80%: all other assays above

N#Cc1sc(-c2cn(-c3c(Cl)cc(C(F)(C(F)(F)F)C(F)(F)F)cc3Cl)nn2)cc1C(=O)NC1CC1 [Example 13, 2-cyano-N-cyclopropyl-5-[1-[2,6-dichloro-4-[1,2,2,2-tetrafluoro-1-(trifluoromethyl)ethyl]phenyl]triazol-4-yl]thiophene-3-carboxamide]
≥ 80%: [2] | [4] | [5] | [6]

CCN(C(=O)c1cc(-c2cn(-c3c(Cl)cc(C(F)(C(F)(F)F)C(F)(F)F)cc3Cl)nn2)sc1Cl)C1(C#N)CC1 [Example 14, 2-chloro-N-(1-cyanocyclopropyl)-5-[1-[2,6-dichloro-4-[1,2,2,2-tetrafluoro-1-(trifluoromethyl)ethyl]phenyl]triazol-4-yl]-N-ethyl-thiophene-3-carboxamide]
≥ 80%: [2] | [4] | [5] | [6]

CN(C(=O)c1cc(-c2cn(-c3c(Cl)cc(C(F)(C(F)(F)F)C(F)(F)F)cc3Cl)nn2)sc1Cl)C1(C#N)CC1 [Example 15, 2-chloro-N-(1-cyanocyclopropyl)-5-[1-[2,6-dichloro-4-[1,2,2,2-tetrafluoro-1-(trifluoromethyl)ethyl]phenyl]triazol-4-yl]-N-methyl-thiophene-3-carboxamide]
≥ 80%: [2] | [4] | [5] | [6]

N#CC1(NC(=O)c2cc(-c3cn(-c4c(Cl)cc(C(F)(C(F)(F)F)C(F)(F)F)cc4Cl)nn3)sc2Cl)CC1 [Example 16, 2-chloro-N-(1-cyanocyclopropyl)-5-[1-[2,6-dichloro-4-[1,2,2,2-tetrafluoro-1-(trifluoromethyl)ethyl]phenyl]triazol-4-yl]thiophene-3-carboxamide]
≥ 80%: [4] | [5]
